Experimental data from US6921775B2, “Methods for modulating brain damage” (Children's Medical Center Corporation, priority 2001, dated 2005).

Assays:
OL precursor cells = assay: Cell lineage progression (stage-specific markers A2B5, O4, O1, MBP) in OL precursor cultures; format: cell-based, rat; conditions: topiramate 30 μM, NBQX 100 μM; 0, 2, 6 and 10 days of maturation
Protocol: Primary oligodendrocyte precursor cells were isolated from mixed glial cultures of the forebrains of newborn Sprague-Dawley rats using a selective detachment procedure as described in detail elsewhere (McCarthy and de Vellis, 1980; Back et al., 1998), and further purified by differential adhesion (Back et al., 1998). Precursor cells were maintained in a chemically-defined medium (CDM) supplemented with recombinant human platelet derived growth factor-AA (PDGF, 10 ng/ml) and basic fibroblast growth factor (bFGF, 10 ng/ml). The CDM was Dulbecco Modified Eagle's Medium (DMEM) containing D-glucose (25 mM), L-glutamine (4 mM), sodium pyruvate (1 mM), human apo-transferrin (50 μg/ml), bovine pancreatic insulin (5 μg/ml), sodium selenium (30 nM), hydrocortisone (10 nM), D-biotin (10 nM), and bovine serum albumin (BSA, 1 mg/ml). All chemicals were from Sigma. […] Cell lineage progression was monitored by the sequential emergence of stage-specific immunochemical markers: A2B5, O4, O1, and MBP, as described previously (Back et al., 1998). […] The effect of these protocols on maturation was also assessed. Differentiation of the cultures in the absence or presence of topiramate (30 μM) or NBQX (100 μM) was monitored by cell morphology and the sequential emergence of a panel of OL stage-specific markers (A2B5, O4, O1, and MBP), following 0, 2, 6, and 10 days of maturation.

[1] = test system: AMPA receptors in cerebral white matter; assay: Intracerebral AMPA injection white matter injury; format: in vivo; conditions: P7 rats, 5 nmol AMPA plus 5 nmol MK-801, systemic NBQX post-treatment, t test p<0.005
Protocol: The methods used in this example are described in Follett et al. (2000) J. Neurosci. 20:9235-9241, incorporated by reference herein.
NBQX attenuation of the selective white matter injury after hypoxia/ischemia implicated GluR-mediated toxicity as an important mechanism of injury in immature OLs. To confirm a relationship between the activation of AMPA receptors in cerebral white matter and the vulnerability to injury, AMPA was injected directly into immature white matter. […] Minimal to no injury was present in vehicle-injected controls (M K801 alone; n=7) at the same age (t test, p<0.001).
To determine whether AMPA toxicity was age dependent, lesion size after intracerebral AMPA injections at P4, P7, and P11 was compared.

Row | Compound | progression along the OL lineage (morphology, A2B5, O4, O1, MBP) (OL precursor cells) | white matter injury (lesion size) after intracerebral AMPA [1]
1 | NS(=O)(=O)c1cccc2c1c([N+](=O)[O-])cc1nc(O)c(O)nc12 [NBQX, 2,3-Dioxo-6-nitro-1,2,3,4-tetrahydrobenzo[f]quinoxaline-7-sulphonamide] | indistinguishable from the progression of the control cultures | significantly attenuated white matter injury
2 | CC1(C)O[C@@H]2[C@@H](CO[C@@]3(COS(N)(=O)=O)OC(C)(C)O[C@@H]23)O1 [topiramate] | indistinguishable from the progression of the control cultures | –
